The text below walks through data of article PMC5218480 (PLoS ONE, 2017).

For the test, the system named is MV-4-11 cells. The test is described as follows: Gene expression microarray analysis (Affymetrix PrimeView) and GSEA. The format is cell-based, human. The arrangement: RFU PODN (11730768_x_at) / Fold change /veh PODN (11730768_x_at) / RFU LINC00158 (11744669_a_at) / Fold change /veh LINC00158 (11744669_a_at) / RFU DUSP10 (11751237_a_at) / Fold change /veh DUSP10 (11751237_a_at) / RFU ID3 (11757404_x_at) / Fold change /veh ID3 (11757404_x_at) / RFU PLEKHG5 (11737974_s_at) / Fold change /veh PLEKHG5 (11737974_s_at) / RFU LRRC4B (11730491_at) / Fold change /veh LRRC4B (11730491_at) / RFU GIMAP4 (11747438_a_at) / Fold change /veh GIMAP4 (11747438_a_at) / RFU KRT8 (11758183_x_at) / Fold change /veh KRT8 (11758183_x_at) / RFU CNN1 (11734310_a_at) / Fold change /veh CNN1 (11734310_a_at) / RFU VPS37D (11726825_at) / Fold change /veh VPS37D (11726825_at) / RFU C10orf10 (11716522_x_at) / Fold change /veh C10orf10 (11716522_x_at) / RFU KIR2DL2 /// KIR2DL4 /// KIR2DL5A /// KIR2DL5B /// KIR2DS1 /// KIR2DS2 /// KIR2DS3 /// KIR2DS4 /// KIR3DL3 /// KIR3DL3 /// KIR3DS1 (11738374_at) / Fold change /veh KIR2DL2 /// KIR2DL4 /// KIR2DL5A /// KIR2DL5B /// KIR2DS1 /// KIR2DS2 /// KIR2DS3 /// KIR2DS4 /// KIR3DL3 /// KIR3DL3 /// KIR3DS1 (11738374_at) / RFU C1QL1 (11718748_at) / Fold change /veh C1QL1 (11718748_at) / RFU TMPRSS4 (11747572_a_at) / Fold change /veh TMPRSS4 (11747572_a_at) / RFU HAMP (11756126_x_at) / Fold change /veh HAMP (11756126_x_at) / RFU RNFT2 (11725882_a_at) / Fold change /veh RNFT2 (11725882_a_at) / RFU NR4A2 (11747474_a_at) / Fold change /veh NR4A2 (11747474_a_at) / RFU ABCC12 (11746883_a_at) / Fold change /veh ABCC12 (11746883_a_at) / RFU TMEM136 (11760407_x_at) / Fold change /veh TMEM136 (11760407_x_at) / RFU CLDN22 /// WWC2 (11732394_at) / Fold change /veh CLDN22 /// WWC2 (11732394_at) / RFU HLA-DPB1 (11760878_x_at) / Fold change /veh HLA-DPB1 (11760878_x_at) / RFU SPINT1 (11716480_a_at) / Fold change /veh SPINT1 (11716480_a_at) / RFU GAP43 (11754022_s_at) / Fold change /veh GAP43 (11754022_s_at) / RFU A4GNT (11735810_at) / Fold change /veh A4GNT (11735810_at) / RFU PRB3 (11715151_x_at) / Fold change /veh PRB3 (11715151_x_at) / RFU TUBB4B (11761932_at) / Fold change /veh TUBB4B (11761932_at) / RFU CAPN14 (11732068_a_at) / Fold change /veh CAPN14 (11732068_a_at) / RFU TMCC2 (11721928_a_at) / Fold change /veh TMCC2 (11721928_a_at) / RFU IRGQ (11745062_a_at) / Fold change /veh IRGQ (11745062_a_at) / RFU FAM174B (11720279_a_at) / Fold change /veh FAM174B (11720279_a_at) / RFU TMPRSS4 (11748680_a_at) / Fold change /veh TMPRSS4 (11748680_a_at) / RFU FAM212B (11763350_a_at) / Fold change /veh FAM212B (11763350_a_at) / RFU PLEKHG5 (11743358_a_at) / Fold change /veh PLEKHG5 (11743358_a_at) / RFU ZSCAN30 (11745921_a_at) / Fold change /veh ZSCAN30 (11745921_a_at) / RFU CMKLR1 (11741424_a_at) / Fold change /veh CMKLR1 (11741424_a_at) / RFU LOC101060620 /// MAPK8IP1 (11723275_at) / Fold change /veh LOC101060620 /// MAPK8IP1 (11723275_at) / RFU SPTSSB (11747773_x_at) / Fold change /veh SPTSSB (11747773_x_at) / RFU PRSS12 (11739890_at) / Fold change /veh PRSS12 (11739890_at) / RFU BIN1 (11741810_x_at) / Fold change /veh BIN1 (11741810_x_at) / RFU WNT11 (11732464_a_at) / Fold change /veh WNT11 (11732464_a_at) / RFU C10orf10 (11716521_a_at) / Fold change /veh C10orf10 (11716521_a_at) / RFU C5orf56 (11738089_at) / Fold change /veh C5orf56 (11738089_at) / RFU CYB561 (11721691_x_at) / Fold change /veh CYB561 (11721691_x_at) / RFU ANKRD19P (11752326_a_at) / Fold change /veh ANKRD19P (11752326_a_at) / RFU OR2T12 /// OR2T33 /// OR2T8 (11738714_s_at) / Fold change /veh OR2T12 /// OR2T33 /// OR2T8 (11738714_s_at) / RFU VCAN (11748164_a_at) / Fold change /veh VCAN (11748164_a_at) / RFU JSRP1 (11732532_at) / Fold change /veh JSRP1 (11732532_at) / RFU KRTAP10-11 (11738290_x_at) / Fold change /veh KRTAP10-11 (11738290_x_at) / RFU MYO3A (11730013_a_at) / Fold change /veh MYO3A (11730013_a_at) / RFU EBF3 (11725865_a_at) / Fold change /veh EBF3 (11725865_a_at) / RFU CAMK2N1 (11719241_x_at) / Fold change /veh CAMK2N1 (11719241_x_at) / RFU C5orf56 (11738088_a_at) / Fold change /veh C5orf56 (11738088_a_at) / RFU OLFML3 (11715873_a_at) / Fold change /veh OLFML3 (11715873_a_at) / RFU LOC100653217 /// NTM (11731650_a_at) / Fold change /veh LOC100653217 /// NTM (11731650_a_at) / RFU MAPK11 (11762145_a_at) / Fold change /veh MAPK11 (11762145_a_at) / RFU FIZ1 (11724087_x_at) / Fold change /veh FIZ1 (11724087_x_at) / RFU OASL (11726364_x_at) / Fold change /veh OASL (11726364_x_at) / RFU SOX15 (11748057_x_at) / Fold change /veh SOX15 (11748057_x_at) / RFU CD79A (11719716_a_at) / Fold change /veh CD79A (11719716_a_at) / RFU HIST1H1D (11736915_at) / Fold change /veh HIST1H1D (11736915_at) / RFU CASKIN2 (11723855_a_at) / Fold change /veh CASKIN2 (11723855_a_at) / RFU LOC730098 (11760151_x_at) / Fold change /veh LOC730098 (11760151_x_at) / RFU OR4N2 (11742367_at) / Fold change /veh OR4N2 (11742367_at) / RFU PRRT2 (11749266_a_at) / Fold change /veh PRRT2 (11749266_a_at) / RFU SNX32 (11753110_a_at) / Fold change /veh SNX32 (11753110_a_at) / RFU CDHR5 (11726645_a_at) / Fold change /veh CDHR5 (11726645_a_at) / RFU RCAN1 (11760418_a_at) / Fold change /veh RCAN1 (11760418_a_at) / RFU FAM167A (11723789_a_at) / Fold change /veh FAM167A (11723789_a_at) / RFU FAM26E (11764081_at) / Fold change /veh FAM26E (11764081_at) / RFU ISYNA1 (11749810_s_at) / Fold change /veh ISYNA1 (11749810_s_at) / RFU ACY1 (11761880_at) / Fold change /veh ACY1 (11761880_at) / RFU 11764098_at / Fold change /veh 11764098_at / RFU SAMD14 (11745864_x_at) / Fold change /veh SAMD14 (11745864_x_at) / RFU NPB (11741838_a_at) / Fold change /veh NPB (11741838_a_at) / RFU TMPRSS6 (11731388_a_at) / Fold change /veh TMPRSS6 (11731388_a_at) / RFU KRTAP10-2 (11738614_at) / Fold change /veh KRTAP10-2 (11738614_at) / RFU ARHGAP8 /// PRR5-ARHGAP8 (11727945_x_at) / Fold change /veh ARHGAP8 /// PRR5-ARHGAP8 (11727945_x_at) / RFU KRTAP5-7 /// NADSYN1 (11734609_at) / Fold change /veh KRTAP5-7 /// NADSYN1 (11734609_at) / RFU RASL12 (11751679_a_at) / Fold change /veh RASL12 (11751679_a_at) / RFU CDKN2B (11736163_a_at) / Fold change /veh CDKN2B (11736163_a_at) / RFU PRF1 (11729649_at) / Fold change /veh PRF1 (11729649_at) / RFU, ZNF638 /// ZNF638-IT1 / Fold change vs veh, ZNF638 /// ZNF638-IT1 / RFU, PANK3 / Fold change vs veh, PANK3 / RFU, SH3YL1 / Fold change vs veh, SH3YL1 / RFU, ZEB2 / Fold change vs veh, ZEB2 / RFU, NRIP1 / Fold change vs veh, NRIP1 / RFU, PTTG1IP / Fold change vs veh, PTTG1IP / RFU, CAPN2 / Fold change vs veh, CAPN2 / RFU, MED14 / Fold change vs veh, MED14 / RFU, SNORA58 / Fold change vs veh, SNORA58 / RFU, C1orf63 / Fold change vs veh, C1orf63 / RFU, LRRFIP1 / Fold change vs veh, LRRFIP1 / RFU, NDUFAF7 / Fold change vs veh, NDUFAF7 / RFU, SLC12A2 / Fold change vs veh, SLC12A2 / RFU, IBTK / Fold change vs veh, IBTK / RFU, ESF1 / Fold change vs veh, ESF1 / Fold change vs veh, TMEM50B / RFU, TAOK1 / Fold change vs veh, TAOK1 / RFU, ACBD3 / Fold change vs veh, ACBD3 / RFU, TMA16 / Fold change vs veh, TMA16 / RFU, RWDD3 / Fold change vs veh, RWDD3 / RFU, BCAT1 / Fold change vs veh, BCAT1 / RFU, EDEM3 / Fold change vs veh, EDEM3 / RFU, TMEM33 / Fold change vs veh, TMEM33 / RFU, WDR75 / Fold change vs veh, WDR75 / RFU, AHCTF1 / Fold change vs veh, AHCTF1 / RFU, TFRC / Fold change vs veh, TFRC / RFU, ZDHHC17 / Fold change vs veh, ZDHHC17 / RFU, NOM1 / Fold change vs veh, NOM1 / RFU, ARL8B / Fold change vs veh, ARL8B / RFU, ZBTB11 / Fold change vs veh, ZBTB11 / RFU, TAMM41 / Fold change vs veh, TAMM41 / RFU, KIAA1704 /// LOC100996395 / Fold change vs veh, KIAA1704 /// LOC100996395 / RFU, ING1 / Fold change vs veh, ING1 / RFU, TRMT61B / Fold change vs veh, TRMT61B / RFU, FUBP3 / Fold change vs veh, FUBP3 / RFU, TP53 / Fold change vs veh, TP53 / RFU, TNKS2 / Fold change vs veh, TNKS2 / RFU, ZFP14 / Fold change vs veh, ZFP14 / RFU, ACTR2 / Fold change vs veh, ACTR2 / RFU, PPP3R1 / Fold change vs veh, PPP3R1 / RFU, PIK3R1 / Fold change vs veh, PIK3R1 / RFU, HNRNPA1 / Fold change vs veh, HNRNPA1 / RFU, RNF170 / Fold change vs veh, RNF170 / RFU, ZNF28 / Fold change vs veh, ZNF28 / RFU, RNGTT / Fold change vs veh, RNGTT / RFU, OGT / Fold change vs veh, OGT / RFU, BRD1 / Fold change vs veh, BRD1 / RFU, MARS / Fold change vs veh, MARS / RFU, ZNF655 / Fold change vs veh, ZNF655 / RFU, FAHD1 / Fold change vs veh, FAHD1 / RFU, BDP1 / Fold change vs veh, BDP1 / RFU, LRRCC1 / Fold change vs veh, LRRCC1 / RFU, ARID1A / Fold change vs veh, ARID1A / RFU, ZNF146 / Fold change vs veh, ZNF146 / RFU, ZNF330 / Fold change vs veh, ZNF330 / RFU, GPN3 / Fold change vs veh, GPN3 / RFU, C9orf123 / Fold change vs veh, C9orf123 / RFU, N4BP2L2 / Fold change vs veh, N4BP2L2 / RFU, ARFIP1 / Fold change vs veh, ARFIP1 / RFU, FAM179B / Fold change vs veh, FAM179B / RFU, BCL10 / Fold change vs veh, BCL10 / RFU, UHRF1BP1L / Fold change vs veh, UHRF1BP1L / RFU, BET1 / Fold change vs veh, BET1 / RFU, CNOT2 / Fold change vs veh, CNOT2 / RFU, ZNF268 / Fold change vs veh, ZNF268 / Fold change vs veh, ZNF507 / RFU, DGCR2 / Fold change vs veh, DGCR2 / RFU, WDSUB1 / Fold change vs veh, WDSUB1 / Fold change vs veh, HSP90B1 /// MIR3652 / RFU, ADSS / Fold change vs veh, ADSS / RFU, GK / Fold change vs veh, GK / RFU, ZNF148 / Fold change vs veh, ZNF148 / RFU, TAF9 / Fold change vs veh, TAF9 / RFU, SLC1A5 / Fold change vs veh, SLC1A5 / RFU, SLMO2 / Fold change vs veh, SLMO2 / RFU, ABCC4 / Fold change vs veh, ABCC4 / RFU, LOC101060439 /// RAP1B / Fold change vs veh, LOC101060439 /// RAP1B / RFU, RFX7 / Fold change vs veh, RFX7 / RFU, GTPBP10 / Fold change vs veh, GTPBP10 / RFU, CNEP1R1 / Fold change vs veh, CNEP1R1 / RFU, BIVM-ERCC5 /// ERCC5 / Fold change vs veh, BIVM-ERCC5 /// ERCC5 / RFU, ILF3 / Fold change vs veh, ILF3 / RFU 11762660_at / Fold change /veh 11762660_at / RFU VCAN (11757783_s_at) / Fold change /veh VCAN (11757783_s_at) / RFU DDX43 (11728927_at) / Fold change /veh DDX43 (11728927_at) / RFU KRT8 (11758188_x_at) / Fold change /veh KRT8 (11758188_x_at) / RFU NKD1 (11759106_at) / Fold change /veh NKD1 (11759106_at) / RFU SRD5A1 (11742802_a_at) / Fold change /veh SRD5A1 (11742802_a_at) / RFU TPSAB1 /// TPSB2 (11721975_s_at) / Fold change /veh TPSAB1 /// TPSB2 (11721975_s_at) / RFU GSTM3 (11746129_a_at) / Fold change /veh GSTM3 (11746129_a_at) / RFU IL23R (11737362_x_at) / Fold change /veh IL23R (11737362_x_at) / RFU TMEM51 (11727254_a_at) / Fold change /veh TMEM51 (11727254_a_at) / RFU PIWIL2 (11732686_x_at) / Fold change /veh PIWIL2 (11732686_x_at) / RFU ORM1 (11744905_x_at) / Fold change /veh ORM1 (11744905_x_at) / RFU CCDC152 (11743942_at) / Fold change /veh CCDC152 (11743942_at) / RFU ECM1 (11717891_a_at) / Fold change /veh ECM1 (11717891_a_at) / RFU IL23R (11748794_a_at) / Fold change /veh IL23R (11748794_a_at) / RFU TNFAIP8L3 (11732012_x_at) / Fold change /veh TNFAIP8L3 (11732012_x_at) / RFU MBOAT4 (11741988_at) / Fold change /veh MBOAT4 (11741988_at) / RFU 11764193_at / Fold change /veh 11764193_at / RFU TMEM53 (11763286_at) / Fold change /veh TMEM53 (11763286_at) / RFU MAGEB2 (11727129_at) / Fold change /veh MAGEB2 (11727129_at) / RFU TMEM200A (11744735_a_at) / Fold change /veh TMEM200A (11744735_a_at) / RFU CCDC152 (11751479_a_at) / Fold change /veh CCDC152 (11751479_a_at) / RFU FAM211A (11726209_a_at) / Fold change /veh FAM211A (11726209_a_at) / RFU RGS16 (11746705_a_at) / Fold change /veh RGS16 (11746705_a_at) / RFU VCAN (11755009_s_at) / Fold change /veh VCAN (11755009_s_at) / RFU RHOB (11743442_s_at) / Fold change /veh RHOB (11743442_s_at) / RFU RGS16 (11720943_a_at) / Fold change /veh RGS16 (11720943_a_at) / RFU RGS16 (11720944_at) / Fold change /veh RGS16 (11720944_at) / RFU, VPS4B / Fold change vs veh, VPS4B / RFU, CREB1 / Fold change vs veh, CREB1 / RFU, DNAJC13 / Fold change vs veh, DNAJC13 / RFU, GNAQ / Fold change vs veh, GNAQ / RFU, CDK5R1 / Fold change vs veh, CDK5R1 / RFU, ZRANB3 / Fold change vs veh, ZRANB3 / RFU, CUL4A / Fold change vs veh, CUL4A / RFU, CCNY / Fold change vs veh, CCNY / RFU, UFL1 / Fold change vs veh, UFL1 / RFU, COG3 / Fold change vs veh, COG3 / RFU, DIAPH2 / Fold change vs veh, DIAPH2 / RFU, SKA2 / Fold change vs veh, SKA2 / RFU, AFF3 / Fold change vs veh, AFF3 / RFU, LMF1 / Fold change vs veh, LMF1 / RFU, IPO11 / Fold change vs veh, IPO11 / RFU, DFFB / Fold change vs veh, DFFB / RFU, FOXP1 / Fold change vs veh, FOXP1 / RFU, CARD8 / Fold change vs veh, CARD8 / RFU, STRN3 / Fold change vs veh, STRN3 / RFU, ADK / Fold change vs veh, ADK / RFU, RASSF2 / Fold change vs veh, RASSF2 / RFU, WIPF1 / Fold change vs veh, WIPF1 / RFU, LARP1B / Fold change vs veh, LARP1B / RFU, RASA1 / Fold change vs veh, RASA1 / RFU, RB1 / Fold change vs veh, RB1 / RFU, PPFIA1 / Fold change vs veh, PPFIA1 / RFU, MAT2A / Fold change vs veh, MAT2A / RFU, CCT5 / Fold change vs veh, CCT5 / RFU, WDR92 / Fold change vs veh, WDR92 / RFU, CUX1 / Fold change vs veh, CUX1 / RFU, TTC7A / Fold change vs veh, TTC7A / RFU, TMEM135 / Fold change vs veh, TMEM135 / RFU, DEPTOR / Fold change vs veh, DEPTOR / RFU, CPM / Fold change vs veh, CPM / RFU, DNAJB6 / Fold change vs veh, DNAJB6 / RFU, CACNA2D3 / Fold change vs veh, CACNA2D3 / RFU, DTX4 / Fold change vs veh, DTX4 / RFU, TFCP2 / Fold change vs veh, TFCP2 / RFU, GMCL1 /// GMCL1P1 / Fold change vs veh, GMCL1 /// GMCL1P1 / RFU, AEBP2 / Fold change vs veh, AEBP2 / RFU, SNHG1 /// SNORD22 /// SNORD25 /// SNORD26 /// SNORD27 /// SNORD28 /// SNORD29 /// SNORD31 / Fold change vs veh, SNHG1 /// SNORD22 /// SNORD25 /// SNORD26 /// SNORD27 /// SNORD28 /// SNORD29 /// SNORD31 / Fold change (Aza/veh), C12orf56 (ProbeSet 11735607_a_at) / Fold change (ACY-1035/veh), C12orf56 (ProbeSet 11735607_a_at) / Fold change (Aza/veh), FGFR1OP (ProbeSet 11751329_s_at) / Fold change (ACY-1035/veh), FGFR1OP (ProbeSet 11751329_s_at) / Fold change (Aza/veh), VPS36 (ProbeSet 11739960_a_at) / Fold change (ACY-1035/veh), VPS36 (ProbeSet 11739960_a_at) / RFU SYPL1 (11715823_x_at) / Fold change /veh SYPL1 (11715823_x_at) / RFU IGFBP7 (11715501_s_at) / Fold change /veh IGFBP7 (11715501_s_at) / RFU REEP3 (11722064_at) / Fold change /veh REEP3 (11722064_at) / RFU IGLL1 (11728026_x_at) / Fold change /veh IGLL1 (11728026_x_at): dose or concentration left out as unconfirmed. Particulars: ProbeSet 11723930_at; LIST D.

Regarding `Nc1ncn([C@@H]2O[C@H](CO)[C@@H](O)[C@H]2O)c(=O)n1` [azacitidine], the “RFU, CCT5” value stood at 106.24 RFU.
